Biological target: Recombinant human ATX (Homo sapiens (Human), UniProt Q13822)
Assay: ATX inhibition assay (choline release, Amplex Red fluorescence)
Assay type: biochemical
Details: ATX 10 nM, LPC 18:1 10 μM, 37° C., 20 min pre-incubation; mean of n≧2
Experimental: Reagents—LPC (oleoyl (18:1)) was purchased from Avanti Polar Lipids (Alabaster, Ala.) and solubilized in methanol to 20 mM. Amplex Red was obtained from Invitrogen Life Technologies (Paisley, UK) and dissolved in DMSO to 10 mM. Choline oxidase and horseradish peroxidase (HRP) were obtained from Sigma Aldrich (Dorset, UK) and dissolved in HBSS to 20 U/ml and 200 U/ml respectively. All reagents were stored at −20° C. in single use aliquots. All experimental measurements were performed in assay buffer made up immediately prior to use (HBSS, 0.01% BSA essentially fatty acid free).
PerkinElmer EnVision (Fluorescence Intensity/Absorbance Monochromator) or Tecan Infinite 200 PRO series plate reader was used to detect change in fluorescent intensity.
Assessing ATX inhibition—ATX activity was determined by measurement of released choline in reactions containing ATX (10 nM), choline oxidase (0.1 U/ml), HRP (100 U/ml), amplex red (50 μM) and LPC 18:1 (10 μM). Compounds of the invention were prepared as 10 point serial dilutions from 1 μM in duplicate and pre-incubated with ATX at 37° C. for 20 minutes prior to the addition of remaining reagents. The liberated choline was measured from changes in fluorescence intensity (λex 530 nm, λem 590 nm) of the product resurofin at 37° C. every 2 minutes over a 40-minute period. ATX activity was measured as a slope of the linear portion of the progress curve, typically between 14 to 24 minutes.
Data analysis—Slope data was exported to Graphpad prism (Graphpad software, San Diego, Calif.) where data was fitted to equation 1. Y=Bottom+(Top-Bottom)/(1+10^((Log IC50−X)*HillSlope)) Equation 1: […]

| Structure (SMILES) | IC50 [nM] |
| --- | --- |
| Cc1nnn(Cc2cc(Cl)ccc2/C=C/C(=O)N2CCC(c3coc(C)n3)CC2)n1 [Example 27, (E)-3-(4-Chloro-2-((5-methyl-2H-tetrazol-2-yl)methyl)phenyl)-1-(4-(2-methyloxazol-4-yl)piperidin-1-yl)prop-2-en-1-one] | 59 |
| Cc1cnn(C2CCN(C(=O)/C=C/c3ccc(Cl)cc3Cn3nnc(C)n3)CC2)c1 [Example 28, (E)-3-(4-Chloro-2-((5-methyl-2H-tetrazol-2-yl)methyl)phenyl)-1-(4-(4-methyl-1H-pyrazol-1-yl)piperidin-1-yl)prop-2-en-1-one] | 6.3 |
| COC(=O)C1CCCCN1C(=O)/C=C/c1ccc(Cl)cc1Cn1nnc(C)n1 (centres unmarked) [Example 29, (E)-Methyl 1-(3-(4-Chloro-2-((5-methyl-2H-tetrazol-2-yl)methyl)phenyl)acryloyl) piperidine-2-carboxylate] | 32 |
| CCOC(=O)c1cnn(CC2(O)CCN(C(=O)/C=C/c3ccc(Cl)cc3Cn3nnc(C)n3)CC2)c1 [Example 32, (E)-Ethyl 1-((1-(3-(4-chloro-2-((5-methyl-2H-tetrazol-2-yl)methyl)phenyl)acryloyl)-4-hydroxypiperidin-4-yl)methyl)-1H-pyrazole-4-carboxylate] | 3.5 |
| Cc1cnn(CCC2CCN(C(=O)/C=C/c3ccc(Cl)cc3Cn3nnc(C)n3)CC2)c1 [Example 33, (E)-3-(4-Chloro-2-((5-methyl-2H-tetrazol-2-yl)methyl)phenyl)-1-(4-(2-(4-methyl-1H-pyrazol-1-yl)ethyl)piperidin-1-yl)prop-2-en-1-one] | 53 |
| Cc1nnn(Cc2cc(Cl)ccc2/C=C/C(=O)N2CCC(O)(Cn3cc(C(=O)O)cn3)CC2)n1 [Example 35, (E)-1-((1-(3-(4-Chloro-2-((5-methyl-2H-tetrazol-2-yl)methyl)phenyl)acryloyl)-4-hydroxypiperidin-4-yl)methyl)-1H-pyrazole-4-carboxylic acid] | 924 |
| Cc1nnn(Cc2cc(C(F)(F)F)ccc2OCC(=O)N2CCC(c3noc(C)n3)CC2)n1 [Example 36, 1-(4-(5-Methyl-1,2,4-oxadiazol-3-yl)piperidin-1-yl)-2-(2-((5-methyl-2H-tetrazol-2-yl)methyl)-4-(trifluoromethyl)phenoxy)ethanone] | 171 |
| Cc1ncn(C2CCN(C(=O)/C=C/c3ccc(C(F)(F)F)cc3Cn3nnc(C)n3)CC2)n1 [Example 37, (E)-1-(4-(3-Methyl-1H-1,2,4-triazol-1-yl)piperidin-1-yl)-3-(2-((5-methyl-2H-tetrazol-2-yl)methyl)-4-(trifluoromethyl)phenyl)prop-2-en-1-one] | 17 |
| C/C(=C\C(=O)N1CCC(c2nnc(C)o2)CC1)c1ccc(Cl)cc1Cn1nnc(C)n1 [Example 39, (E)-3-(4-Chloro-2-((5-methyl-2H-tetrazol-2-yl)methyl)phenyl)-1-(4-(5-methyl-1,3,4-oxadiazol-2-yl)piperidin-1-yl)but-2-en-1-one] | 75 |
| Cc1nnn(Cc2cc(C(F)(F)F)ccc2CCC(=O)N2CCC(c3nnc(C)o3)CC2)n1 [Example 40, 1-(4-(5-Methyl-1,3,4-oxadiazol-2-yl)piperidin-1-yl)-3-(2-((5-methyl-2H-tetrazol-2-yl)methyl)-4-(trifluoromethyl)phenyl)propan-1-one] | 42 |
| Cc1nnn(Cc2cc(F)ccc2/C=C/C(=O)N2CCC(Cc3nnc(C)o3)CC2)n1 [Example 41, (E)-3-(4-Fluoro-2-((5-methyl-2H-tetrazol-2-yl)methyl)phenyl)-1-(4-((5-methyl-1,3,4-oxadiazol-2-yl)methyl)piperidin-1-yl)prop-2-en-1-one] | 654 |
| Cc1nnn(Cc2cc(F)c(F)cc2/C=C/C(=O)N2CCC(Cc3nnc(C)o3)CC2)n1 [Example 42, (E)-3-(4,5-Difluoro-2-((5-methyl-2H-tetrazol-2-yl)methyl)phenyl)-1-(4-((5-methyl-1,3,4-oxadiazol-2-yl)methyl)piperidin-1-yl)prop-2-en-1-one] | 436 |
| Cc1nnn(Cc2ccc(Cl)cc2/C=C/C(=O)N2CCC(Cc3nnc(C)o3)CC2)n1 [Example 43, (E)-3-(5-Chloro-2-((5-methyl-2H-tetrazol-2-yl)methyl)phenyl)-1-(4-((5-methyl-1,3,4-oxadiazol-2-yl)methyl)piperidin-1-yl)prop-2-en-1-one] | 2370 |
| Cc1nnn(Cc2cccc(F)c2/C=C/C(=O)N2CCC(Cc3nnc(C)o3)CC2)n1 [Example 44, (E)-3-(2-Fluoro-6-((5-methyl-2H-tetrazol-2-yl)methyl)phenyl)-1-(4-((5-methyl-1,3,4-oxadiazol-2-yl)methyl)piperidin-1-yl)prop-2-en-1-one] | 535 |
| Cc1cnc(Cc2cc(Cl)ccc2/C=C/C(=O)N2CCC(Cc3nnc(C)o3)CC2)o1 [Example 45, (E)-3-(4-Chloro-2-((5-methyloxazol-2-yl)methyl)phenyl)-1-(4-((5-methyl-1,3,4-oxadiazol-2-yl)methyl)piperidin-1-yl)prop-2-en-1-one] | 644 |
| Cc1nnn(Cc2cccc(Cl)c2/C=C/C(=O)N2CCC(Cc3nnc(C)o3)CC2)n1 [Example 46, (E)-3-(2-Chloro-6-((5-methyl-2H-tetrazol-2-yl)methyl)phenyl)-1-(4-((5-methyl-1,3,4-oxadiazol-2-yl)methyl)piperidin-1-yl)prop-2-en-1-one] | 204 |
| Cc1nnn(Cc2cc(Cl)ccc2COC(=O)N2CCC(c3nnc(C)o3)CC2)n1 [Example 47, 4-Chloro-2-((5-methyl-2H-tetrazol-2-yl)methyl)benzyl 4-(5-methyl-1,3,4-oxadiazol-2-yl)piperidine-1-carboxylate] | 442 |
| Cc1nnn(Cc2cc(Cl)ccc2COC(=O)N2CCC(c3ncc(C)o3)CC2)n1 [Example 48, 4-Chloro-2-((5-methyl-2H-tetrazol-2-yl)methyl)benzyl 4-(5-methyloxazol-2-yl)piperidine-1-carboxylate] | 70 |
| Cc1nnn(Cc2cc(Cl)ccc2/C=C/C(=O)N2CCN(c3ncccn3)CC2)n1 [Example 49.1, (E)-3-(4-Chloro-2-((5-methyl-2H-tetrazol-2-yl)methyl)phenyl)-1-(4-(pyrimidin-2-yl)piperazin-1-yl)prop-2-en-1-one] | 20 |
| Cc1nnn(Cc2cc(Cl)ccc2/C=C/C(=O)N2CC(S(C)(=O)=O)C2)n1 [Example 49.2, (E)-3-(4-Chloro-2-((5-methyl-2H-tetrazol-2-yl)methyl)phenyl)-1-(3-(methylsulfonyl)azetidin-1-yl)prop-2-en-1-one] | 477 |
| Cc1nnn(Cc2cc(Cl)ccc2/C=C/C(=O)N2CCC(N3CCNC3=O)CC2)n1 [Example 49.3, (E)-1-(1-(3-(4-Chloro-2-((5-methyl-2H-tetrazol-2-yl)methyl)phenyl)acryloyl)piperidin-4-yl)imidazolidin-2-one] | 129 |
| Cc1nnn(Cc2cc(Cl)ccc2/C=C/C(=O)N2CCC(F)C2)n1 (centres unmarked) [Example 49.5, (E)-3-(4-Chloro-2-((5-methyl-2H-tetrazol-2-yl)methyl)phenyl)-1-(3-fluoropyrrolidin-1-yl)prop-2-en-1-one] | 320 |
| Cc1nnn(Cc2cc(Cl)ccc2/C=C/C(=O)N2CCC(CCO)CC2)n1 [Example 49.6, (E)-3-(4-Chloro-2-((5-methyl-2H-tetrazol-2-yl)methyl)phenyl)-1-(4-(2-hydroxyethyl)piperidin-1-yl)prop-2-en-1-one] | 110 |
| Cc1nnn(Cc2cc(Cl)ccc2/C=C/C(=O)N2CCCC(O)C2)n1 (centres unmarked) [Example 49.7, (E)-3-(4-Chloro-2-((5-methyl-2H-tetrazol-2-yl)methyl)phenyl)-1-(3-hydroxypiperidin-1-yl)prop-2-en-1-one] | 151 |
| Cc1nnn(Cc2cc(Cl)ccc2/C=C/C(=O)N2CCCC(C(N)=O)C2)n1 (centres unmarked) [Example 49.8, (E)-1-(3-(4-Chloro-2-((5-methyl-2H-tetrazol-2-yl)methyl)phenyl)acryloyl)piperidine-3-carboxamide] | 354 |
| CCOC(=O)C1CCN(C(=O)/C=C/c2ccc(Cl)cc2Cn2nnc(C)n2)CC1 [Example 49.9, (E)-ethyl 1-(3-(4-Chloro-2-((5-methyl-2H-tetrazol-2-yl)methyl)phenyl)acryloyl)piperidine-4-carboxylate] | 5.9 |
| Cc1nnn(Cc2cc(Cl)ccc2/C=C/C(=O)N2CCC(OCC(=O)N3CCCCC3)CC2)n1 [Example 49.10, (E)-3-(4-Chloro-2-((5-methyl-2H-tetrazol-2-yl)methyl)phenyl)-1-(4-(2-oxo-2-(piperidin-1-yl)ethoxy)piperidin-1-yl)prop-2-en-1-one] | 24 |
| Cc1nnn(Cc2cc(Cl)ccc2/C=C/C(=O)N2CCC(Cn3cccn3)CC2)n1 [Example 49.11, (E)-1-(4-((1H-Pyrazol-1-yl)methyl)piperidin-1-yl)-3-(4-chloro-2-((5-methyl-2H-tetrazol-2-yl)methyl)phenyl)prop-2-en-1-one] | 14 |
| Cc1nnn(Cc2cc(Cl)ccc2/C=C/C(=O)N2CCC(C(F)(F)F)CC2)n1 [Example 49.12, (E)-3-(4-Chloro-2-((5-methyl-2H-tetrazol-2-yl)methyl)phenyl)-1-(4-(trifluoromethyl)piperidin-1-yl)prop-2-en-1-one] | 49 |

— patent publication US9763957B2, “Autotaxin inhibitors” (Novartis AG, priority 2013, dated 2017)
